The record followed here is US20220370453A1 (Storm Therapeutics Ltd, priority 2019, published 2022).

Assay [1] deals with T1, BCDIN3D (Homo sapiens, UniProt Q7Z5W3).
T1 sequence (Q7Z5W3 1-292): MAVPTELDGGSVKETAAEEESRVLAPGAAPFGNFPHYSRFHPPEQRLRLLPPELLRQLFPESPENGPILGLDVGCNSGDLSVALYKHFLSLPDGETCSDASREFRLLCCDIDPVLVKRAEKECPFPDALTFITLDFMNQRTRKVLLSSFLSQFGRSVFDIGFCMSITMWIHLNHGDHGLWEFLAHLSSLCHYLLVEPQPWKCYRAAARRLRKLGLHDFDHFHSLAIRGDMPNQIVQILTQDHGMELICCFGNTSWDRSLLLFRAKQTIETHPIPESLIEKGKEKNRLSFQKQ
The assay can be described thus: BCDIN3D IC50 RFMS (RapidFire) assay with mini-helix. It counts as biochemical. Conditions: mini-helix substrate 0.2 μM, SAM 6 μM, 25 nM enzyme. In outline: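 25 nM enzyme preincubated 10 min at room temperature with compound (1% DMSO) in 25 mM Tris pH 8.0, 10 mM DTT, 1 mM EDTA, 0.03% BSA. Reaction started with 0.2 μM mini-helix plus 6 μM SAM, run 1 h at 37 °C, quenched with TCA; SAH product quantified by RapidFire MS against isotopic SAH standards.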

In assay [2] the target is T1, BCDIN3D. The assay can be described thus: BCDIN3D InCellPulse thermal stability assay in transfected A549 cells. The note with it: transiently transfected A549 cells, heat shock 58° C. 15 min. It counts as cell-based. The essentials: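 A549 cells transiently expressing BCDIN3D N-terminally fused to ePL ProLabel tag, 1500 cells/well, pre-incubated 1 h at 37 °C with compound (0.6% DMSO). Heat shock 58 °C for 15 min; remaining soluble fusion detected by split β-galactosidase complementation luminescence.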

The structures appear in SMILES notation.

What is called IC50 is the concentration at which inhibition is half-maximal. Read a high IC50 as lower potency.

For `Cn1ncc2c(NC(C)(C)C3CC3)nc(NC[C@H](N)c3ccccc3)nc21` [Compound 4.59, N6-[(2R)-2-amino-2-phenyl-ethyl]-N4-(1-cyclopropyl-1-methyl-ethyl)-1-methyl-pyrazolo[3,4-d]pyrimidine-4,6-diamine], the IC50 in assay [1] was found to be 109 nM; in assay [2] it was 77.5 nM.
As to `Cn1ncc2c(NCC3CC34CC4)nc(NC[C@H](N)c3ccccc3)nc21` (stereo partly drawn) [Compound 4.60, N6-[(2R)-2-amino-2-phenyl-ethyl]-1-methyl-N4-(spiro[2.2]pentan-2-ylmethyl)pyrazolo[3,4-d]pyrimidine-4,6-diamine], the IC50 worked out at 6.1 nM in assay [1] and 44.4 nM in assay [2].
In the same order, the values of `Cn1ncc2c(NCC3CC3(F)F)nc(NC[C@H](N)c3ccccc3)nc21` (stereo partly drawn) [Compound 4.61, N6-[(2R)-2-amino-2-phenyl-ethyl]-N4-[(2,2-difluorocyclopropyl)methyl]-1-methyl-pyrazolo[3,4-d]pyrimidine-4,6-diamine] are 266 nM and 378 nM.
`Cn1ncc2c(NCC3CC3(C)C)nc(NC[C@H](N)c3ccccc3)nc21` (stereo partly drawn) [Compound 4.62, N6-[(2R)-2-amino-2-phenyl-ethyl]-N4-[(2,2-dimethylcyclopropyl)methyl]-1-methyl-pyrazolo[3,4-d]pyrimidine-4,6-diamine]: the IC50 amounted to 6.1 nM in assay [1] and 112 nM in assay [2].
With `Cn1ncc2c(NC34CC(C#N)(C3)C4)nc(NCC(N)c3ccccc3)nc21` (stereo not drawn) [Compound 4.64, 3-[[6-[(2-amino-2-phenylethyl)amino]-1-methylpyrazolo[3,4-d]pyrimidin-4-yl]amino]bicyclo[1.1.1]pentane-1-carbonitrile], the IC50 was 202 nM in assay [1] and 949 nM in assay [2].
`Cn1ncc2c(NC34CC(F)(C3)C4)nc(NCC(N)c3ccccc3)nc21` (stereo not drawn) [Compound 4.65, N6-(2-amino-2-phenylethyl)-N4-{3-fluorobicyclo[1.1.1]pentan-1-yl}-1-methyl-1H-pyrazolo[3,4-d]pyrimidine-4,6-diamine]: the half-inhibitory concentration (IC50) was found to be 230 nM in assay [1] and 616 nM in assay [2].
For the compound `Cn1ncc2c(NC34CC(C3)C4)nc(NC[C@H](N)c3ccccc3)nc21` [Compound 4.66, N6-[(2R)-2-amino-2-phenyl-ethyl]-N4-(3-bicyclo[1.1.1]pentanyl)-1-methyl-pyrazolo[3,4-d]pyrimidine-4,6-diamine], the IC50 in assay [1] was found to be 128 nM; in assay [2], 137 nM.
In the same order, the values of `Cn1ncc2c(NC34CC(F)(C3)C4)nc(NC[C@H](N)c3ccccc3)nc21` [Compound 4.67, N6-[(2R)-2-amino-2-phenyl-ethyl]-N4-(3-fluoro-1-bicyclo[1.1.1]pentanyl)-1-methyl-pyrazolo[3,4-d]pyrimidine-4,6-diamine] are 179 nM and 168 nM.
Consider `Cn1ncc2c(NC3CCC(F)(F)CC3)nc(NCC(N)c3ccccc3)nc21` (stereo not drawn) [Compound 4.68, 6-N-(2-amino-2-phenylethyl)-4-N-(4,4-difluorocyclohexyl)-1-methylpyrazolo[3,4-d]pyrimidine-4,6-diamine], for which the IC50 in assay [1] came to 1140 nM; in assay [2] it was 3240 nM.
For the compound `Cn1ncc2c(NC3CCOCC3)nc(NC[C@H](N)c3ccccc3)nc21` [Compound 4.69, N6-[(2R)-2-amino-2-phenyl-ethyl]-1-methyl-N4-tetrahydropyran-4-yl-pyrazolo[3,4-d]pyrimidine-4,6-diamine], the half-maximal inhibitory concentration (IC50) in assay [1] was determined as 851 nM; in assay [2] it was 3140 nM.
Turning to `Cn1ncc2c(NC(C)(C)CO)nc(NC[C@H](N)c3ccccc3)nc21` [Compound 4.71, 2-[[6-[[(2R)-2-amino-2-phenyl-ethyl]amino]-1-methyl-pyrazolo[3,4-d]pyrimidin-4-yl]amino]-2-methyl-propan-1-ol], the IC50 was 1400 nM in assay [1] and 1200 nM in assay [2].
For the compound `Cn1ncc2c(NCC(C)(C)C)nc(NC[C@H](N)c3ccccc3)nc21` [Compound 4.72, N6-[(2R)-2-amino-2-phenyl-ethyl]-N4-(2,2-dimethylpropyl)-1-methyl-pyrazolo[3,4-d]pyrimidine-4,6-diamine], the half-inhibitory concentration (IC50) in assay [1] is 154 nM; in assay [2], 318 nM.
Turning to `Cn1ncc2c(NCC(F)F)nc(NC[C@H](N)c3ccccc3)nc21` [Compound 4.73, N6-[(2R)-2-amino-2-phenyl-ethyl]-N4-(2,2-difluoroethyl)-1-methyl-pyrazolo[3,4-d]pyrimidine-4,6-diamine], the values for the half-maximal inhibitory concentration (IC50) in assay [1] and in assay [2] were 528 nM and 412 nM, respectively.
Consider `Cn1ncc2c(NCC(C)(F)F)nc(NC[C@H](N)c3ccccc3)nc21` [Compound 4.74, N6-[(2R)-2-amino-2-phenyl-ethyl]-N4-(2,2-difluoropropyl)-1-methyl-pyrazolo[3,4-d]pyrimidine-4,6-diamine], for which the IC50 was found to be 252 nM in assay [1] and 341 nM in assay [2].
On to `Cn1ncc2c(NC(C)(C)C(F)(F)F)nc(NC[C@H](N)c3ccccc3)nc21` [Compound 4.75, N6-[(2R)-2-amino-2-phenyl-ethyl]-1-methyl-N4-(2,2,2-trifluoro-1,1-dimethyl-ethyl)pyrazolo[3,4-d]pyrimidine-4,6-diamine], for which the IC50 in assay [1] stood at 240 nM; in assay [2] it was 711 nM.
In the same order, the values of `C[C@H](Nc1nc(NC[C@H](N)c2ccccc2)nc2c1cnn2C)C(F)(F)F` [Compound 4.76, N6-[(2R)-2-amino-2-phenyl-ethyl]-1-methyl-N4-[(1S)-2,2,2-trifluoro-1-methyl-ethyl]pyrazolo[3,4-d]pyrimidine-4,6-diamine] are 136 nM and 232 nM.
On to `Cn1ncc2c(NC3(C)CC3)nc(NC[C@H](N)c3ccccc3)nc21` [Compound 4.77, N6-[(2R)-2-amino-2-phenyl-ethyl]-1-methyl-N4-(1-methylcyclopropyl)pyrazolo[3,4-d]pyrimidine-4,6-diamine], for which the IC50 turned out to be 2770 nM in assay [1] and 1970 nM in assay [2].
Turning to `Cn1ncc2c(NC3(C(F)(F)F)CC3)nc(NC[C@H](N)c3ccccc3)nc21` [Compound 4.78, N6-[(2R)-2-amino-2-phenyl-ethyl]-1-methyl-N4-[1-(trifluoromethyl)cyclopropyl]pyrazolo[3,4-d]pyrimidine-4,6-diamine], the concentration for half-maximal inhibition (IC50) in assay [1] is 769 nM; in assay [2], 379 nM.
`Cn1ncc2c(NC3(C(C)(C)C)CC3)nc(NC[C@H](N)c3ccccc3)nc21` [Compound 4.79, N6-[(2R)-2-amino-2-phenyl-ethyl]-N4-(1-tert-butylcyclopropyl)-1-methyl-pyrazolo[3,4-d]pyrimidine-4,6-diamine]: the IC50 is 2300 nM in assay [1] and 3200 nM in assay [2].
The like results for `Cn1ncc2c(NC3CC34CC4)nc(NC[C@H](N)c3ccccc3)nc21` (stereo partly drawn) [Compound 4.80, N6-[(2R)-2-amino-2-phenyl-ethyl]-1-methyl-N4-spiro[2.2]pentan-2-yl-pyrazolo[3,4-d]pyrimidine-4,6-diamine] were, in that order, 656 nM and 518 nM.
The like results for `Cn1ncc2c(NC3CC(CO)(CCl)C3)nc(NCC(N)c3ccccc3)nc21` (stereo not drawn) [Compound 4.81, [3-[[6-[(2-amino-2-phenyl-ethyl)amino]-1-methyl-pyrazolo[3,4-d]pyrimidin-4-yl]amino]-1-(chloromethyl)cyclobutyl]methanol] were, in that order, 583 nM and 625 nM.
